The results in this text go back to patent publication EP0925070B1, “ANTIFUNGAL COMBINATION THERAPY” (MERCK & CO., INC., priority 1996, dated 1998).

Series [1] concerns A. fumigatus. The series can be described thus: drug interaction and efficacy study, disseminated aspergillosis. It is filed as in vivo. The following applies: Compound I at 0.008 mg/kg combined with AmB at 0.12 mg/kg, versus the compounds administered alone. Here is the method: (§1) Drug interaction and efficacy studies with Compound I combined with either AmB or FCZ against disseminated candidiasis, aspergillosis and cryptococcosis were performed.

In series [2] the test system is A. fumigatus. The series can be described thus: broth microdilution antifungal susceptibility / drug combination testing in vitro (NCCLS protocol M27-T). The class given is cell-based. The text has this:
(§2) This has been shown using a broth microdilution technique which is the standard method for antifungal susceptibility testing proposed by the NCCLS (protocol M27-T). Sub-inhibitory concentrations of Compound I in combination with sub-inhibitory concentrations of AmB and sub-inhibitory concentrations of FCZ were employed. The minimal inhibitory concentrations (MICs) for AmB and Compound I were defined as the lowest drug concentration at which there was an absence of growth.
(§3) Additional drug combination testing in vitro was performed to evaluate combinations of Compound I with AmB and FCZ against clinical isolates. There was no antagonism evident between Compound I and AmB against C. albicans, A. fumigatus and C. neoformans. Fractional inhibitory indices (FIC) were approximately 0.50 or lower, indicative of additive or synergistic activity.
(In general: Broth dilution looks for growth in wells or tubes with falling amounts of substance.)

Series [3] deals with C. albicans. The series is described as above. The class given is cell-based.
Description: as §2, §3

For series [4], the system named is C. neoformans. Described as above. The following applies: for activity against strains of C. neoformans in vitro: sub-inhibitory concentrations. The class given is cell-based.
Description: as §2, §3

The test system of series [5] is disseminated candidiasis, aspergillosis and cryptococcosis. The experiment in a line: drug interaction and efficacy studies in vivo, overall statements. The following applies: for adverse effects: at high, use or lower concentrations. The procedure: as §1
The test system of series [6] is C. neoformans. The series can be described thus: drug interaction and efficacy study, disseminated cryptococcosis. The class given is in vivo. The following applies: combinations of Compound I and FCZ at certain concentrations. Here is the method: as §1
Series [7] concerns C. albicans. The series can be described thus: drug interaction and efficacy study, disseminated candidiasis. The class given is in vivo. The following applies: Compound I 0.03 mg/kg and lower plus 0.03 mg/kg and lower of AmB. Here is the method:
as §1

The mark [8] stands for this setting: Compound I in combination with AmB.

Take `CCC(C)CC(C)CCCCCCCCC(=O)N[C@H]1C[C@@H](O)[C@@H](NCCN)NC(=O)[C@@H]2[C@@H](O)CCN2C(=O)[C@H]([C@H](O)CCN)NC(=O)[C@H]([C@H](O)[C@@H](O)c2ccc(O)cc2)NC(=O)[C@@H]2C[C@@H](O)CN2C(=O)[C@H]([C@@H](C)O)NC1=O` (stereo partly shown) [Compound I]: in the series with A. fumigatus [1], the survival result is on record as “Significant improvement in survival”. The activity in vitro result in the series on A. fumigatus [2] (setting [8]) and in the series with C. albicans [3] (setting [8]) was “enhanced activity” throughout. Moreover, the “antagonism between Compound I and AmB” value in the series on A. fumigatus [2] (in vitro, clinical isolates) is “no antagonism”; with C. albicans [3] (in vitro, clinical isolates) it was “no antagonism”; with C. neoformans [4] (in vitro, clinical isolates, C. neoformans) it was “no antagonism”. Further, the “activity of fluconazole, CFU numbers” value in the series with C. neoformans [4] (Compound I combined with fluconazole 0.25, 0.50 and 1.0 µg/ml, organism not printed) is “significantly enhanced the activity of fluconazole”. The “activity against strains of C. neoformans in vitro” value with C. neoformans [4] (setting [8]) and in the series on C. neoformans [4] (Compound I in combination with FCZ) was “enhanced activity” in each case. In addition, the “colony forming units (CFUs)” value with C. neoformans [4] (amphotericin B 0.0075, 0.015 and 0.03 µg/ml combined with Compound I 4, 8 and 16 µg/ml, organism not printed) was “markedly reduced”. The antagonism of efficacy entry in series [5] (AmB combined with Compound I) and in series [5] (FCZ combined with Compound I) was “no antagonism of efficacy” each time. Moreover, the adverse effects entry in series [5] (Compound I combined with AmB) and in series [5] (Compound I combined with FCZ) was “no adverse effects” in each case. The “efficacy against C. neoformans” value in the series on C. neoformans [6] is recorded as “Beneficial effects on efficacy”. The “efficacy against C. albicans” value in the series with C. albicans [7] is recorded as “more efficacious than either agent administered alone”.
